Experimental data as given in PubChem BioAssay AID489027 (Sanford-Burnham Center for Chemical Genomics, 2010).
Activity calls are given as the source filed them. How the calls were made is not given here.

target: UPR counterscreen luciferase reporter, luminescence; assay: activators in UPR counterscreen luciferase reporter, dose response, counter-screen for adaptive UPR activator project, cell-based, luminescence (AID 489027)

| SMILES | EC50 |
| --- | --- |
| COc1ccc(-c2sc3ccccc3c2-c2ccc(OCCN(C)C)cc2)cc1 | 13.3 µM |
| CCCCCCCCCCOC(=O)Cn1c(COc2ccc(C)cc2)[n+](C)c2ccccc21 | > 80 µM (inactive) |
| Cc1ccc(Nc2nc(-c3c(C)nc4ccccn34)cs2)cc1 | > 80 µM (inactive) |
| CCOC(=O)/C=c1\s/c(=C\c2ccc3cc(OC)ccc3c2)c(=O)n1CC(=O)NCC1CCCO1 (stereo unspecified) | > 80 µM (inactive) |
| CCCCOc1ccccc1NC(=O)Cn1c(-c2nonc2N)nc2ccccc21 | inactive |
| O=C(Nc1ccc(C(F)(F)F)cc1)c1cc(-c2cccnc2)nc2ccc(Br)cc12 | 11.5 µM |
| Cc1ccc(S(=O)(=O)Cc2cc(F)c([N+](=O)[O-])cc2[N+](=O)[O-])cc1 | > 80 µM (inactive) |
| CC1(C)CC(=O)C(C=Nc2ccc(C(=O)c3ccccc3)cc2N=CC2=C(O)CC(C)(C)CC2=O)=C(O)C1 | 9.78 µM |
| COc1cc(NC(=O)c2ccc(C)cc2C)ccc1NC(=O)c1cc2ccccc2o1 | inactive |
| Cc1ccc(-c2nnn(CC(=O)Nc3ccc(S(=O)(=O)N4CCC(C)CC4)cc3)n2)cc1 | inactive |
| O=C(/C=C\c1cn(-c2ccccc2)nc1-c1ccccc1)Nc1nccs1 | > 80 µM (inactive) |
| Cc1ccc(-c2ccnc(-c3ccc(O)cc3)n2)cc1 | > 80 µM (inactive) |
| O=C(N/N=C/c1ccc(Cl)cc1)c1sccc1OCc1ccc(F)cc1 | inactive |
| N#C/C(=C\c1ccc(N2CCCC2)c([N+](=O)[O-])c1)c1nc2ccccc2[nH]1 | > 80 µM (inactive) |
| C/C(=N\Nc1ncnc2sc(C)c(C)c12)c1ccccn1 | 2.6 µM |
| CCCCN(CC)S(=O)(=O)c1ccc(C(=O)N(CCCN(C)C)c2nc3cc(C)cc(C)c3s2)cc1 | 11.4 µM |
| CCOc1ccccc1CNC(=O)C1CCN(c2nnc(C)c3c(C)n(-c4ccc(C)cc4)nc23)CC1 | > 80 µM (inactive) |
| CC1CCN(Cc2c(C(=O)N/N=C/c3ccc(C(F)(F)F)cc3)nnn2-c2nonc2N)CC1 | > 80 µM (inactive) |
| CCOc1cc(/C=N/NC(=O)Cn2nc([N+](=O)[O-])cc2C)cc(Br)c1OCc1ccccc1C | > 80 µM (inactive) |
| Brc1cc2c(cc1/C=N/Nc1nc3ccccc3s1)OCO2 | > 80 µM (inactive) |
| CC(C)N(C(=O)[C@H]1C[C@H](CC(=O)NCc2cccc(C(F)(F)F)c2)C(=O)N2CCc3c([nH]c4ccc(Cl)cc34)[C@]12C)C(C)C | inactive |
| CN1Cc2c(N3CCOCC3)nc3sc(C(=O)c4ccc(Br)cc4)c(N)c3c2CC1(C)C | 18.7 µM |
| Cc1nn(-c2ccccc2)c(C)c1/C=N/NC(=O)CSc1nc2ccccc2c(=O)n1-c1ccc(Br)cc1 | 7.19 µM |

| SMILES | EC50 |
| --- | --- |
| COc1ccc2oc(-c3ccc(C)c(NC(=O)c4ccc(N5CCOCC5)c([N+](=O)[O-])c4)c3)nc2c1 | > 80 µM (inactive) |
| COc1ccc(-c2cc(C(F)F)n3ncc(C(=O)N4CCc5ccccc5C4)c3n2)cc1 | inactive |
| O=C(Nc1ccc(Br)cc1)c1cc(-c2ccncc2)nc2ccccc12 | 12.7 µM |
| O=[N+]([O-])c1ccc(N/N=C/c2ccc(OCc3cccc4ccccc34)cc2)nc1 | > 80 µM (inactive) |
| CCCCCC(=O)Nc1ccc(C(=O)N/N=C/c2ccc([N+](=O)[O-])cc2)cc1 | inactive |
| COc1cc(CNCCO)cc(Cl)c1OCc1ccc(Cl)cc1Cl | > 80 µM (inactive) |
| CCOC(=O)/C(=N\Nc1ccc(C(C)=O)cc1)c1csc(Nc2ccccc2)n1 | inactive |
| COc1ccc(-c2csc(NC(=S)NC(=O)/C=C/c3ccco3)n2)cc1Br | inactive |
| CCOc1ccc(-c2nnc(SCC(=O)Nc3ccc4c(c3)c3ccccc3n4CC)n2N)cc1 | 14.6 µM |
| Cc1cc(N2CCN(c3ccc([N+](=O)[O-])c4cccnc34)CC2)c2ccccc2n1 | inactive |
| Cc1ccc(NC(=O)c2cc(S(=O)(=O)N(C)C)ccc2N2CCCC2)cc1F | inactive |
| C[C@@H]1C[C@H]2[C@@H]3CCC4=CC(=O)C=C[C@]4(C)[C@@]3(Cl)[C@@H](O)C[C@]2(C)[C@@]1(OC(=O)c1ccco1)C(=O)CCl | > 80 µM (inactive) |
| COc1cc(/C=C2\CC(C(C)(C)C)C/C(=C\c3cc(OC)c(OC)c(OC)c3)C2=O)cc(OC)c1OC (stereo unspecified) | 4 µM |
| O=C(Cn1c2ccc(F)cc2c2nc3n(c(=O)c21)CCS3)Nc1ccc(Cl)cc1F | > 80 µM (inactive) |
| CCOC(=O)c1nnn2c1nc(Nc1cccc(C(F)(F)F)c1)c1ccccc12 | 10 µM |
| Cc1ccc(-c2cc(C(F)F)n3ncc(C(=O)N4CCc5ccccc54)c3n2)cc1 | > 80 µM (inactive) |
| O=C(CSCc1ccc(Cl)cc1)Nc1ccc(-c2nnc(-c3ccccc3)o2)cc1 | > 80 µM (inactive) |
| COc1ccc(C2c3ccc4ccccc4c3Oc3ncn(CCCN(C)C)c(=N)c32)cc1 (stereo unspecified) | 8.25 µM |
| C#CCOCCOCCOCCNc1nc(N2CCN(C(=O)CCCCCCCCCCNC(=O)[C@H](CCCCN)n3cc(C[C@@H](C)CC)nn3)CC2)nc(N2CCN(C(=O)CCCCCCCCCCNC(=O)[C@H](CCCN=C(N)N)n3cc(C[C@@H](C)CC)nn3)CC2)n1 | > 80 µM (inactive) |
| CCc1nn(-c2cc(Oc3cccc4ccccc34)nc(-c3ccccc3)n2)c(N)c1C#N | > 80 µM (inactive) |
| C/C(=N/NC(=O)c1ccc(Cl)s1)c1ccc(NC(=O)COc2ccc(Cl)cc2)cc1 | inactive |
| NC(=O)CC(NC(=O)Cc1cccc2ccccc12)c1ccc(NCCOc2ccccc2)c([N+](=O)[O-])c1 (stereo unspecified) | > 80 µM (inactive) |
| CCOC(=O)C1=C(C)n2c(s/c(=C/c3cccc([N+](=O)[O-])c3)c2=O)=NC1c1ccc(O)c(OC)c1 (stereo unspecified) | inactive |

| SMILES | EC50 |
| --- | --- |
| O=C(C[n+]1ccc(-c2cc(C(=O)Nc3cccc(C(F)(F)F)c3)c3ccccc3n2)cc1)c1cccc([N+](=O)[O-])c1 | 16.8 µM |
| c1ccc(N=Nc2ccc3cccccc2-3)cc1 | 11 µM |
| CCc1sc2nc(SCC(=O)Nc3cc(C)on3)n(-c3cccc(OC)c3)c(=O)c2c1C | 15.6 µM |
| CN(C)CC/C=C1\c2ccc(F)cc2Sc2cc(F)c(Cl)cc21 | > 80 µM (inactive) |
| COc1ccc(N2CCN(Cc3nc(N)nc(Nc4ccc(C)c(Cl)c4)n3)CC2)cc1 | > 80 µM (inactive) |
| COc1ccc(-c2cc(C(F)F)n3ncc(C(=O)Nc4ccc(C(=O)N5CCOCC5)cc4)c3n2)cc1 | > 80 µM (inactive) |
| CC(C)CN=C(NS(=O)(=O)c1ccccc1)C(Cl)(Cl)Cl | 16.2 µM |
| COc1ccc(Cn2c(SCc3cc(C)ccc3C)nc3cc(OC)c(OC)cc3c2=N)cc1 | > 80 µM (inactive) |
| N#CCC(=O)N/N=C/c1cn(Cc2ccc3ccccc3c2)c2ccccc12 | 15.6 µM |
| Cc1ccc(C(=O)C(C(=O)/C=C/c2ccccc2)=C2SCCCS2)cc1 | 11.9 µM |
| Cc1nc(SCC(=O)Nc2ccc(F)cc2)c(C#N)c(C)c1CC(=O)c1ccc(Br)cc1 | > 80 µM (inactive) |
| Cc1ccc(C(C(=O)NCc2ccco2)N(C(=O)CNC(=O)c2cccs2)c2c(C)cc(C)cc2C)cc1 (stereo unspecified) | inactive |
| COc1cc(/C=N/Nc2nc(Nc3ccc(C)cc3)nc(-n3nc(C)cc3C)n2)cc(OC)c1OC | > 80 µM (inactive) |
| Cc1ccc(-n2c(O)c(/C=N/c3ncc(Br)cc3Br)c(=O)[nH]c2=O)cc1 | inactive |
| O=S(=O)(c1ccc2nc(-c3ccccc3)[nH]c2c1)N1CCN(c2ccc(Cl)cc2)CC1 | > 80 µM (inactive) |
| Cn1c(Cl)cnc1C1CC(=O)c2cc(Cl)ccc2O1 (stereo unspecified) | 12 µM |
| COc1cc(-c2noc(C)c2/C=C/c2ccc(OC(C)=O)cc2)cc(OC)c1OC | > 80 µM (inactive) |
| CSc1ccccc1NC(=O)c1cc(-c2cccnc2)nc2ccc(Br)cc12 | > 80 µM (inactive) |
| C#CCn1c(=NC(=O)c2ccc(S(=O)(=O)N3CCc4ccccc4C3)cc2)sc2cc(S(N)(=O)=O)ccc21 | > 80 µM (inactive) |
| Cc1cccnc1Nc1nc(-c2ccc(O)c(O)c2)cs1 | 2.29 µM |
| CCOC(=O)C1=C(C)N=C2c3ccccc3C(=O)C2C1c1ccc(C)cc1 (stereo unspecified) | > 80 µM (inactive) |
| CCCn1c(Nc2nc3ccccc3n2C)nc2ccccc21 | inactive |
| CCOC(=O)c1nnc(-c2ccc(C)cc2)nc1Oc1ccccc1Cl | inactive |

| SMILES | EC50 |
| --- | --- |
| CCOC(=O)c1nnc(-c2ccc(C)cc2)nc1Sc1ccccc1Cl | 14.8 µM |
| CC1CCc2cc(F)ccc2N1C(=O)CSc1nnc2c(n1)[nH]c1ccc(F)cc12 (stereo unspecified) | > 80 µM (inactive) |
| CC(C)=CCc1c2c(c3occ(-c4ccc(O)cc4)c(=O)c3c1O)C=CC(C)(C)O2 | 16.6 µM |
| CN(C)CC(CCC(CN(C)C)C(O)(c1ccccc1)c1ccccc1)C(O)(c1ccccc1)c1ccccc1 (stereo unspecified) | 6.06 µM |
| CCc1ccc2nc(N(CCCN(C)C)C(=O)c3ccc(S(=O)(=O)N4CCc5ccccc5C4)cc3)sc2c1 | 12.7 µM |
| CCC(=O)Nc1cccc(C(=O)/C=C/c2ccc(F)cc2)c1 | 12.1 µM |
| Oc1cccc(-c2nc3c4c(ncn3n2)-c2ccccc2CC42CCCC2)c1 | 18.6 µM |
| Cc1ccc(C2=Nc3ccc(Br)cc3C(c3ccncc3)=NN2)cc1 | inactive |
| c1ccc(Oc2c3ccccc3nc3ccccc23)cc1 | inactive |
| COc1ccc(/C=C/c2nc3cc(-c4ccccc4)ccc3o2)cc1O | 14.6 µM |
| Cc1c(O)cc2c(c1O)C(=O)CC(c1ccccc1)O2 (stereo unspecified) | 10.9 µM |
| Cc1cc(C)c2c(n1)sc1c(-c3ccccc3)c(C#N)c(N)nc12 | > 80 µM (inactive) |
| O=C1Nc2ccccc2/C1=C/c1ccc([N+](=O)[O-])cc1 | inactive |
| CCCCN(CC)S(=O)(=O)c1ccc(C(=O)N=c2sc3cc(NC(C)=O)ccc3n2C)cc1 | 5.23 µM |
| O=C(/C=C/c1cc([N+](=O)[O-])ccc1OC(F)F)Nc1cccc([N+](=O)[O-])c1 | > 80 µM (inactive) |
| Cc1cc(C)c2c(c1)/C(=c1/sc3n(c1=O)CN(c1ccccc1)CN=3)C(=O)N2 | 10.5 µM |
| COc1cc2c(cc1NC(=S)NC(=O)/C=C/c1ccco1)oc1ccccc12 | inactive |
| CC(C)Cn1c2c(c(=O)[nH]c1=O)C(C(F)(F)F)(C(F)(F)F)N=C(CCC1CCCCC1)N2 | inactive |
| CCN(CC)c1ccc(N=Cc2c(O)n(-c3ccc(Cl)cc3)c(=O)[nH]c2=O)cc1 | 20 µM |
| CN(C)c1ccc(/C=C/[N+](=O)[O-])cc1 | 12.6 µM |
| Cc1ccc(NC(=O)c2c(C)nc3sc(C(=O)NC4CCCC4)c(N)c3c2-c2ccco2)c(C)c1 | inactive |
| CN1/C(=C\C(=O)COC(=O)c2ccc(O)c(O)c2)C(C)(C)c2ccccc21 | 6.61 µM |
